This is an account of results in ChEMBL document CHEMBL5316379, “Potent and Selective BCL-XL Inhibitors and PROTAC Compounds as Potential Cancer Treatment and Immunotherapy” (ACS Med Chem Lett, 2023).

In test [1] the target is von Hippel-Lindau disease tumor suppressor/Bcl-2-like protein 1 (Homo sapiens, UniProt P40337+Q07817). Nature of the test: Protac activity at VHL/BCL-xl in human NCI-H1650 cells assessed as induction of BCL-xl degradation by Nano-Glo HiBiT assay. The class given is cell-based. For orientation: With HiBiT, luminescence reflects the tagged protein that the partner subunit can reach.
Sequence of von Hippel-Lindau disease tumor suppressor/Bcl-2-like protein 1 (Q07817 whole entry): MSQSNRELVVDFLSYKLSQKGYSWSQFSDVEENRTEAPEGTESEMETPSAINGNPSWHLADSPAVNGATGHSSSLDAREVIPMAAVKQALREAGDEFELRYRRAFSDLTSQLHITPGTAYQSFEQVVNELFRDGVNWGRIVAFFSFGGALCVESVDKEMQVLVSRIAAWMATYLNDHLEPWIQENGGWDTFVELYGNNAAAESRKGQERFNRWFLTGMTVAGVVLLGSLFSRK
Sequence of von Hippel-Lindau disease tumor suppressor/Bcl-2-like protein 1 (P40337 whole entry): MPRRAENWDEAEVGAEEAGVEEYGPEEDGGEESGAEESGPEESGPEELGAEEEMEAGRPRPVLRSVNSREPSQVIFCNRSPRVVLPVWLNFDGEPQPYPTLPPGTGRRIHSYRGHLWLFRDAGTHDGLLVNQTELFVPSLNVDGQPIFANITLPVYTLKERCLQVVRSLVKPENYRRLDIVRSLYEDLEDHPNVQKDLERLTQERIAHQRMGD

In the next test the test system is EBC-1. Nature of the test: Growth inhibition of human EBC-1 cells assessed as cell viability incubated for 5 days by CellTiter-Glo assay. As to conditions: EBC-1, 120 h, time 5 day. The class given is functional. A general note: ATP-based viability assays read luminescence as a measure of living cells.

`Cc1ncsc1-c1ccc([C@H](C)NC(=O)[C@@H]2C[C@@H](O)CN2C(=O)[C@@H](NC(=O)CCCCCCCCCCCCCCCN(C)CCOC23C[C@@]4(C)C[C@@](C)(C2)C[C@@](Cn2ncc(-c5ccc(N6CCCc7c6nnc(Nc6nc8ccccc8s6)c7C)nc5C(=O)O)c2C)(C3)C4)C(C)(C)C)cc1`: the EC50 (commonly the midpoint of the concentration-response curve) in test [1] was 1 nM. For the same compound, in the test with EBC-1, the GI50 (commonly the concentration giving 50% growth inhibition) stood at 5 nM.
Take `Cc1ncsc1-c1ccc([C@H](C)NC(=O)[C@@H]2C[C@@H](O)CN2C(=O)[C@@H](NC(=O)CCCCCCCCCCCCCN(C)CCOC23C[C@@]4(C)C[C@@](C)(C2)C[C@@](Cn2ncc(-c5ccc(N6CCCc7c6nnc(Nc6nc8ccccc8s6)c7C)nc5C(=O)O)c2C)(C3)C4)C(C)(C)C)cc1`: in the test with EBC-1, the GI50 turned out to be 1 nM.
Take `Cc1ncsc1-c1ccc([C@H](C)NC(=O)[C@@H]2C[C@@H](O)CN2C(=O)[C@@H](NC(=O)CCCCCCCN(C)CCOC23C[C@@]4(C)C[C@@](C)(C2)C[C@@](Cn2ncc(-c5ccc(N6CCCc7c6nnc(Nc6nc8ccccc8s6)c7C)nc5C(=O)O)c2C)(C3)C4)C(C)(C)C)cc1`: the half-maximal effective concentration (EC50) in test [1] came out at 3 nM. Besides, the 50% growth inhibitory concentration (GI50) in the test on EBC-1 came to 13 nM.
Regarding `Cc1ncsc1-c1ccc([C@H](C)NC(=O)[C@@H]2C[C@@H](O)CN2C(=O)[C@@H](NC(=O)CCCCCCN(C)CCOC23C[C@@]4(C)C[C@@](C)(C2)C[C@@](Cn2ncc(-c5ccc(N6CCCc7c6nnc(Nc6nc8ccccc8s6)c7C)nc5C(=O)O)c2C)(C3)C4)C(C)(C)C)cc1`, the EC50 in test [1] stood at 3 nM. For the same compound, in the test on EBC-1, the 50% growth inhibitory concentration (GI50) turned out to be 9 nM.
For `Cc1ncsc1-c1ccc([C@H](C)NC(=O)[C@@H]2C[C@@H](O)CN2C(=O)[C@@H](NC(=O)CCCCCCCCN(C)CCOC23C[C@@]4(C)C[C@@](C)(C2)C[C@@](Cn2ncc(-c5ccc(N6CCCc7c6nnc(Nc6nc8ccccc8s6)c7C)nc5C(=O)O)c2C)(C3)C4)C(C)(C)C)cc1`, in that order: 2 nM and 23 nM.
As for `Cc1ncsc1-c1ccc([C@H](C)NC(=O)[C@@H]2C[C@@H](O)CN2C(=O)[C@@H](NC(=O)CCCCCCCCCCCN(C)CCOC23C[C@@]4(C)C[C@@](C)(C2)C[C@@](Cn2ncc(-c5ccc(N6CCCc7c6nnc(Nc6nc8ccccc8s6)c7C)nc5C(=O)O)c2C)(C3)C4)C(C)(C)C)cc1`, in test [1], the half-maximal effective concentration (EC50) was 1 nM. For the same compound, the GI50 with EBC-1 was found to be 13 nM.
In the case of `Cc1ncsc1-c1ccc([C@H](C)NC(=O)[C@@H]2C[C@@H](O)CN2C(=O)[C@@H](NC(=O)CCCCCCCCCCCCCCN(C)CCOC23C[C@@]4(C)C[C@@](C)(C2)C[C@@](Cn2ncc(-c5ccc(N6CCCc7c6nnc(Nc6nc8ccccc8s6)c7C)nc5C(=O)O)c2C)(C3)C4)C(C)(C)C)cc1`, the EC50 in test [1] came to 1 nM. The GI50 with EBC-1 came to 2 nM.
